The series has as its system CCRIS mutagenicity, Ames/micronucleus/aberration tests. The experiment in a line: CCRIS mutagenicity studies.
[1] abbreviates: Test System: AMES SALMONELLA TYPHIMURIUM, Strain/Indicator: TA98, Metabolic Activation: NONE, Method: STANDARD PLATE.
Setting [2] is: Test System: AMES SALMONELLA TYPHIMURIUM, Strain/Indicator: TA98, Metabolic Activation: RAT, LIVER, S-9, AROCLOR 1254, Method: STANDARD PLATE.
Where [3] appears, read: Test System: AMES SALMONELLA TYPHIMURIUM, Strain/Indicator: TA100, Metabolic Activation: NONE, Method: STANDARD PLATE.
[4] abbreviates: Test System: AMES SALMONELLA TYPHIMURIUM, Strain/Indicator: TA100, Metabolic Activation: RAT, LIVER, S-9, AROCLOR 1254, Method: STANDARD PLATE.
[5] abbreviates: Test System: AMES SALMONELLA TYPHIMURIUM, Strain/Indicator: TA1535, Metabolic Activation: NONE, Method: STANDARD PLATE.
[6] abbreviates: Test System: AMES SALMONELLA TYPHIMURIUM, Strain/Indicator: TA1535, Metabolic Activation: RAT, LIVER, S-9, AROCLOR 1254, Method: STANDARD PLATE.
Where [7] appears, read: Test System: AMES SALMONELLA TYPHIMURIUM, Strain/Indicator: TA1537, Metabolic Activation: NONE, Method: STANDARD PLATE.
Setting [8] is: Test System: AMES SALMONELLA TYPHIMURIUM, Strain/Indicator: TA1537, Metabolic Activation: RAT, LIVER, S-9, AROCLOR 1254, Method: STANDARD PLATE.

Results on 6 compounds are retold here after PubChem BioAssay AID1259407 (Chemical Carcinogenesis Research Information System (CCRIS), 2018).

Molecules are shown by their SMILES. Activity calls are given as the source filed them. The rule behind the calls is not given here.

On to `C/C=C/c1ccc(O)c(OC)c1`, for which the mutagenic call is “inactive; negative” (End Point: E. coli, Test System: WP2uvrA/pKM101, Metabolic Activation: None, Method: Preincubation); “inactive; negative” (End Point: E. coli, Test System: WP2uvrA/pKM101, Metabolic Activation: Rat, Liver, S-9, Aroclor 1254 (10%), Method: Preincubation); “inactive; negative” (End Point: In vitro chromosomal aberrations, Test System: Chinese hamster ovary (CHO) cells, Metabolic Activation: None); “inactive; negative” (End Point: In vitro chromosomal aberrations, Test System: Chinese hamster ovary (CHO) cells, Metabolic Activation: Rat, Liver, S-9, Aroclor 1254); “active; positive” (End Point: In vivo micronucleus, Test System: Micronucleated normochromatic erythrocytes in perripheral blood, Species: Mouse, Strain/Sex: B6C3F1 / Female, Route: Oral); “inactive; negative” (End Point: In vivo micronucleus, Test System: Micronucleated normochromatic erythrocytes in perripheral blood, Species: Mouse, Strain/Sex: B6C3F1 / Male, Route: Oral). Besides, the mutagenic call is “inactive; negative” (Test System: AMES SALMONELLA TYPHIMURIUM, Strain/Indicator: TA97, Metabolic Activation: NONE, Method: PREINCUBATION); “inactive; negative” (Test System: AMES SALMONELLA TYPHIMURIUM, Strain/Indicator: TA97, Metabolic Activation: RAT, LIVER, S-9, AROCLOR 1254, Method: PREINCUBATION); “inactive; negative” (Test System: AMES SALMONELLA TYPHIMURIUM, Strain/Indicator: TA98, Metabolic Activation: HAMSTER, LIVER, S-9, AROCLOR 1254, Method: STANDARD PLATE); “inactive; negative” under setting [1]; “inactive; negative” under setting [2]; “inactive; negative” (Test System: AMES SALMONELLA TYPHIMURIUM, Strain/Indicator: TA100, Metabolic Activation: HAMSTER, LIVER, S-9, AROCLOR 1254, Method: STANDARD PLATE). Further, the mutagenic call by setting is: under setting [3], “inactive; negative”; under setting [4], “inactive; negative”; (Test System: AMES SALMONELLA TYPHIMURIUM, Strain/Indicator: TA102, Metabolic Activation: NONE, Method: PREINCUBATION) “inactive; negative”; (Test System: AMES SALMONELLA TYPHIMURIUM, Strain/Indicator: TA102, Metabolic Activation: RAT, LIVER, S-9, AROCLOR 1254, Method: PREINCUBATION) “inactive; negative”; (Test System: AMES SALMONELLA TYPHIMURIUM, Strain/Indicator: TA1535, Metabolic Activation: HAMSTER, LIVER, S-9, AROCLOR 1254, Method: STANDARD PLATE) “inactive; negative”; under setting [5], “inactive; negative”. In addition, the mutagenic call was “inactive; negative” under setting [6]; “inactive; negative” (Test System: AMES SALMONELLA TYPHIMURIUM, Strain/Indicator: TA1537, Metabolic Activation: HAMSTER, LIVER, S-9, AROCLOR 1254, Method: STANDARD PLATE); “inactive; negative” under setting [7]; “inactive; negative” under setting [8]; “inactive; negative” (Test System: AMES SALMONELLA TYPHIMURIUM, Strain/Indicator: TA1538, Metabolic Activation: HAMSTER, LIVER, S-9, AROCLOR 1254, Method: STANDARD PLATE); “inactive; negative” (Test System: AMES SALMONELLA TYPHIMURIUM, Strain/Indicator: TA1538, Metabolic Activation: NONE, Method: STANDARD PLATE). Moreover, the mutagenic call is “inactive; negative” (Test System: AMES SALMONELLA TYPHIMURIUM, Strain/Indicator: TA1538, Metabolic Activation: RAT, LIVER, S-9, AROCLOR 1254, Method: STANDARD PLATE); “active; positive. reevaluation of results: positive” (Test System: MOUSE LYMPHOMA, Strain/Indicator: L5178Y (TK+/TK-), Metabolic Activation: NONE, Method: SUSPENSION/PLATE); “inactive; negative. reevaluation of results: negative” (Test System: MOUSE LYMPHOMA, Strain/Indicator: L5178Y (TK+/TK-), Metabolic Activation: RAT, LIVER, S-9, AROCLOR 1254, Method: SUSPENSION/PLATE).
`BrC(Br)C(Br)Br`: the mutagenic call is, setting by setting: (Test System: AMES SALMONELLA TYPHIMURIUM, Strain/Indicator: TA97, Metabolic Activation: NONE, Method: STANDARD PLATE) “active; positive”; (Test System: AMES SALMONELLA TYPHIMURIUM, Strain/Indicator: TA97, Metabolic Activation: RAT, LIVER, S-9, AROCLOR 1254, Method: STANDARD PLATE) “active; positive”; under setting [1], “inactive; negative”; under setting [2], “active; positive”; under setting [3], “inactive; negative”; under setting [4], “active; positive”. The mutagenic call was “inactive; negative” (Test System: AMES SALMONELLA TYPHIMURIUM, Strain/Indicator: TA104, Metabolic Activation: NONE, Method: STANDARD PLATE); “active; positive” (Test System: AMES SALMONELLA TYPHIMURIUM, Strain/Indicator: TA104, Metabolic Activation: RAT, LIVER, S-9, AROCLOR 1254, Method: STANDARD PLATE); “active; positive” (Test System: AMES SALMONELLA TYPHIMURIUM, Strain/Indicator: TA1530, Metabolic Activation: NONE, Method: PREINCUBATION).
On to `CN(C)C(=N)N(C)C`, for which the mutagenic call by setting is: (Test System: AMES SALMONELLA TYPHIMURIUM, Strain/Indicator: TA98, Metabolic Activation: NONE, Method: PREINCUBATION) “inactive; negative”; (Test System: AMES SALMONELLA TYPHIMURIUM, Strain/Indicator: TA98, Metabolic Activation: RAT, LIVER, S-9, PCB, Method: PREINCUBATION) “inactive; negative”; (Test System: AMES SALMONELLA TYPHIMURIUM, Strain/Indicator: TA100, Metabolic Activation: NONE, Method: PREINCUBATION) “inactive; negative”; (Test System: AMES SALMONELLA TYPHIMURIUM, Strain/Indicator: TA100, Metabolic Activation: RAT, LIVER, S-9, PCB, Method: PREINCUBATION) “inactive; negative”.
In the case of `Oc1cnc2ccccc2c1`, the mutagenic call reads like this: under setting [3], “inactive; negative”; (Test System: AMES SALMONELLA TYPHIMURIUM, Strain/Indicator: TA100, Metabolic Activation: RAT, LIVER, S-9, AROCLOR 1254 (10% OR 20%), Method: STANDARD PLATE) “inactive; negative”.
For the compound `COP(N)(=O)SC` (centres undefined), the mutagenic call was “active; positive” (Test System: Ames Salmonella typhimurium, Strain/Indicator: TA98, Metabolic Activation: None, Method: Preincubation); “active; positive” (Test System: Ames Salmonella typhimurium, Strain/Indicator: TA98, Metabolic Activation: Rat, Liver, S-9 (10%), Aroclor 1254, Method: Preincubation); “inactive; negative” (Test System: Ames Salmonella typhimurium, Strain/Indicator: TA100, Metabolic Activation: None, Method: Preincubation); “inactive; negative” (Test System: Ames Salmonella typhimurium, Strain/Indicator: TA100, Metabolic Activation: Rat, Liver, S-9 (10%), Aroclor 1254, Method: Preincubation).
`COc1ccc(C(=O)n2ncc(Cl)c(Cl)c2=O)cc1`: the mutagenic call runs as follows: under setting [1], “inactive; negative”; under setting [2], “inactive; negative”; under setting [3], “inactive; negative”; under setting [4], “inactive; negative”; under setting [5], “inactive; negative”; under setting [6], “inactive; negative”. For the same compound, the mutagenic call reads like this: under setting [7], “inactive; negative”; under setting [8], “inactive; negative”.
